Laboratory results published in PubChem BioAssay (NCI).
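Briefly, cells in 96-well plates were exposed to five compound concentrations for 48 h, and endpoints were estimated by linear interpolation. GI50 marks 50% less growth. TGI is the concentration that stops growth completely.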

Columns and labels:
Test in all cases: NCI tumour cell line growth inhibition, 48 h
NCI-H226 lung = system: NCI-H226 lung
A498 renal = system: A498 renal
UACC-257 melanoma = system: UACC-257 melanoma
M14 melanoma = system: M14 melanoma
CCRF-CEM leukemia = system: CCRF-CEM leukemia
HT29 colon = system: HT29 colon
MDA-MB-231 breast = system: MDA-MB-231 breast
MOLT-4 leukemia = system: MOLT-4 leukemia
NCI/ADR-RES ovarian = system: NCI/ADR-RES ovarian
HCC-2998 colon = system: HCC-2998 colon

Row | Structure (SMILES) | GI50 (NCI-H226 lung) [nM] | TGI (NCI-H226 lung) [nM] | GI50 (A498 renal) [nM] | TGI (A498 renal) [nM] | GI50 (UACC-257 melanoma) [nM] | TGI (UACC-257 melanoma) [nM] | GI50 (M14 melanoma) [nM] | TGI (M14 melanoma) [nM] | GI50 (CCRF-CEM leukemia) [nM] | TGI (CCRF-CEM leukemia) [nM] | GI50 (HT29 colon) [nM] | TGI (HT29 colon) [nM] | GI50 (MDA-MB-231 breast) [nM] | TGI (MDA-MB-231 breast) [nM] | GI50 (MOLT-4 leukemia) [nM] | TGI (MOLT-4 leukemia) [nM] | GI50 (NCI/ADR-RES ovarian) [nM] | TGI (NCI/ADR-RES ovarian) [nM] | GI50 (HCC-2998 colon) [nM] | TGI (HCC-2998 colon) [nM]
1 | O=C1c2ccc3c4c5ccc(c24)C(=O)N1CCCOCCCCOCCCNCc1ccc(cc1)CNCCCOCCCCOCCCN(C3=O)C5=O | 1770 | 6580 | 7890 | 15000 | 989 | 1980 | 923 | 1750 | 889 | 2840 | 956 | 2360 | 1070 | 2980 | 981 | 2620 | 6120 | 17500 | 928 | 1680
2 | C=CC1=C[C@@H]2[C@@H]3O[C@]4(CC[C@H](O4)[C@@H](C)C[C@@H](O)C3=O)C[C@H](O)C3=NCC[C@@]32CC1 | < 3.33 | < 3.33 | < 3.33 | < 3.33 | < 3.33 | 4.86 | < 3.33 | < 3.33 | < 3.33 | > 33300 | < 3.33 | – | < 3.33 | 12.1 | < 3.33 | 112 | < 3.33 | 5.11 | < 3.33 | < 3.33
3 | NC1=C(Br)C(=O)c2ncccc2C1=O | – | 3590 | – | 7990 | – | 1890 | – | 2030 | – | 13700 | – | 4300 | 2010 | 8800 | – | 4830 | 987 | 6120 | – | 2610
4 | COC1(O)C(=O)c2ccccc2OC1(OC)c1ccccc1 (stereo not drawn) | – | > 100000 | – | > 100000 | – | > 100000 | – | > 100000 | – | > 100000 | – | > 100000 | – | > 100000 | – | > 100000 | – | > 100000 | – | > 100000
5 | O=C(CCCCCCSc1nc(-c2ccccc2)cc(-c2ccccc2)n1)NO | 2940 | 13200 | 1690 | 4050 | 2230 | 11100 | 1580 | 5940 | 535 | 5360 | 2020 | 11300 | 2540 | 7620 | 420 | 3300 | 699 | 6150 | 3070 | 11900
6 | COc1ccn2c(C(C)=O)cc(C(=O)c3ccc4c(c3)Sc3ccccc3N4)c2c1 | 286 | > 100000 | 64 | 251 | > 30600 | > 100000 | 85.3 | > 100000 | 135 | > 100000 | 91.8 | 351 | 155 | 10600 | 155 | > 100000 | 54.7 | – | 155 | > 47800
7 | Nc1ncnc2c1ncn2CC(O)C(=O)O (stereo not drawn) | – | > 100000 | – | > 100000 | – | > 100000 | – | > 100000 | – | > 100000 | – | > 100000 | – | > 100000 | – | > 100000 | – | > 100000 | – | > 100000
8 | COc1ccc(-c2cnnn2-c2cc(OC)c3c(c2)OCO3)cc1 | 5710 | > 100000 | 44.4 | 633 | 35400 | > 100000 | 53.7 | > 100000 | 148 | > 100000 | 45.4 | – | 194 | 4630 | 266 | > 27200 | 40.3 | – | 307 | –
9 | CCc1ccccc1N1CCN(C(=O)c2cc(OC)c(OC)c(OC)c2)CC1 | – | 5600 | – | 985 | – | > 73200 | – | 2600 | – | > 100000 | – | 617 | – | > 100000 | – | 41400 | – | 1630 | – | 2090
10 | CCN(CCNc1ccc(C)c2sc3cc(Cl)ccc3c(=O)c12)CC(C)O (stereo not drawn) | 2180 | 4720 | 1490 | 2870 | – | – | 1750 | 3140 | 2020 | 4270 | 1650 | 3170 | 1990 | 4170 | 1620 | 3490 | 2070 | 4080 | 2180 | 3620
11 | C/C(=C\c1ccn(-c2ccc(N)c(F)c2)n1)[C@@H]1C[C@@H]2O[C@]2(C)CCC[C@H](C)[C@H](O)[C@@H](C)C(=O)C(C)(C)[C@@H](O)CC(=O)O1 | 7990 | > 50000 | < 5 | 267 | 45.8 | > 50000 | – | – | 11.4 | > 50000 | 7.56 | > 15900 | 69.5 | > 50000 | 10.6 | > 50000 | 94.3 | > 50000 | 28.7 | > 50000
